Read-outs that look alike come from different tables or passages of the source.
Columns and labels:
[1] = biological target: T1, GDP-loaded HIS-KRAS (G12D, aa 1-169) (Homo sapiens, UniProt P01116, G12D); assay: SOS1 catalyzed nucleotide exchange assay; assay type: biochemical; settings: SOS1 ExD, TR-FRET, 4 hours at 25° C.
T1 construct: GDP-loaded HIS-KRAS (G12D, aa 1-169)
In short: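 Compound was preincubated 15 min with 1.5 nM GDP-loaded KRAS G12D (final 5 nM GDP). SOS1 ExD (aa 564-1049, 0.5 µM), 80 nM BODIPY FL GTP and anti-His Tb antibody were then added for 4 h at 25 °C. The TR-FRET 515/486 ratio was normalized between DMSO and no-KRAS wells, and IC50 came from 4-parameter fits.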

[2] = biological target: T2, GppNp-loaded HIS-KRAS (G12D, aa 1-169) / cRAF RBD (Homo sapiens, UniProt P01116, G12D); assay: GTP-KRAS and cRAF interaction assay; assay type: binding; settings: HTRF, 2 hours at 25° C.
T2 construct: GppNp-loaded HIS-KRAS (G12D, aa 1-169)
T2 sequence (P01116 1-169 isoform P01116-2 G12D): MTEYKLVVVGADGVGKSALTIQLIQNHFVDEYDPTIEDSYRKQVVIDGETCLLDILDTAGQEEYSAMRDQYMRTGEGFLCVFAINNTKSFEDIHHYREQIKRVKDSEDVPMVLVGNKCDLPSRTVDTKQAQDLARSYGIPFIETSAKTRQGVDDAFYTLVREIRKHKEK
In short: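 GppNp-loaded KRAS G12D (2.0 nM) preincubated 15 min with compound, then cRAF RBD (35 nM) and HTRF antibodies added for 2 h at 25° C with 100 μM GTP final. Ratios normalized to DMSO and no-KRAS controls; IC50 by 4-parameter fit.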

[3] = tested on: AGS cells expressing KRAS G12D; assay: Phospho-ERK1/2(THR202/TYR204) HTRF assay; assay type: cell-based; settings: 2 hours incubation, read-out: AGS p-ERK IC50
In short: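 Cells seeded 40,000/well, incubated overnight, then treated with compound in F12K with 0.1% FBS for 2 h at 37 °C. Lysates assayed for phospho-ERK1/2 by HTRF after 4 h at 25 °C; IC50 from 4-parameter logistic fit.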

[4] = tested on: AsPC-1; assay: Cell growth inhibition assay (AsPC-1); assay type: cell-based; settings: AsPC-1, 6 days incubation, CellTiter-Glo
In short: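 AsPC-1 cells seeded at 1000 cells/well in RPMI-1640 with 10% FBS, attached overnight, then exposed to compound dilutions for 6 days at 37 °C/5% CO2. Viability read by CellTiter-Glo luminescence; IC50 from a 4-parameter logistic fit.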

[5] = tested on: AGS; assay: Cell growth inhibition assay (AGS); assay type: cell-based; settings: 6 days incubation, CellTiter-Glo
Protocol: 4. Cell Growth Inhibition Assay
AGS cultured in F12K medium (Gibco) containing 10% fetal bovine serum (Gibco). Cells in culture medium were plated in 96-well plates at a concentration of 500 cells/well ([…]) and allowed to attach overnight.
The next day, compounds were diluted in culture medium and added to the plates. After 6 days incubation in a 37° C./5% CO2 cell incubator, the cell viability was detected by CellTiter-Glo® Luminescent Cell Viability Assay kit (Promega). Luminescent signals were read on Tecan Spark multimode microplate reader and analyzed using a 4-parameter logistic model to calculate IC50 values.

T1 sequence (P01116 1-169 isoform P01116-2 G12D): as above

SMILES | IC50 [1] [nM] | IC50 [2] [nM] | IC50 ([3]; Homo sapiens) [nM] | IC50 ([4]; Homo sapiens, ASPC1, 144 h) [nM] | IC50 ([5]; Homo sapiens, 144 h) [nM] | IC50 [3] [nM] | IC50 [4] [nM] | IC50 [5] [nM]
C#Cc1cccc2cc(O)cc(-c3cc4nc(OCC5(CN6CCOCC6)CC5)nc(N5CC6CCC(C5)N6)c4cc3CC)c12 [Compound 109] | 48.5 | 140 | 51.9 | 86.9 | 28.3 | – | – | –
C#Cc1cccc2cc(O)cc(-c3c(C)cc4c(N5CC6CCC(C5)N6)nc(OCC5(CN6CCOCC6)CC5)nc4c3F)c12 [Compound 40] | 27.7 | 74.3 | 3.72 | 55.5 | 15.4 | – | – | –
C#Cc1cccc2cc(O)cc(-c3c(C(=C)C)cc4c(N5CC6CCC(C5)N6)nc(OCC5(CN6CCOCC6)CC5)nc4c3F)c12 [Compound 105] | 1.57 | 15.6 | 13 | 63.3 | 18.4 | – | – | –
C#Cc1cccc2cc(O)cc(-c3c(C4CC4)cc4c(N5CC6CCC(C5)N6)nc(OCC5(CN6CCOCC6)CC5)nc4c3F)c12 [Compound 38] | 13.8 | 126 | 19.8 | 141 | 51 | – | – | –
C#Cc1cccc2cc(O)cc(-c3ccc4c(N5CC6CCC(C5)N6)nc(OC[C@@]56CCCN5C[C@H](F)C6)nc4c3F)c12 [Compound 73] | 3.02 | 37 | 0.757 | 42 | 7 | – | – | –
C#Cc1cccc2cc(O)cc(-c3ccc4c(N5CC6CCC(C5)N6)nc(OCC5(CN6CCO[C@@H](C)C6)CC5)nc4c3F)c12 [Compound 80] | 3.76 | 69.4 | 3.63 | 24.1 | 5.26 | – | – | –
C#Cc1cccc2cc(O)cc(-c3cc4nc(OCC5(CN6CCOCC6)CC5)nc(N5CC6CCC(C5)N6)c4cc3C(F)(F)F)c12 [Compound 119] | 42.9 | 200 | 113 | 362 | 81.6 | – | – | –
C#Cc1cccc2cc(O)cc(-c3cc4nc(OC[C@@]56CCCN5C[C@H](F)C6)nc(N5CC6CCC(C5)N6)c4cc3F)c12 [Compound 79] | 4.81 | 130 | 6.66 | 109 | 7.75 | – | – | –
C#Cc1c(Cl)ccc2cc(O)cc(-c3c(F)cc4c(N5CC6CCC(C5)N6)nc(OCC5(CN6CCOCC6)CC5)nc4c3F)c12 [Compound 126] | 2.07 | 24.7 | 20.8 | 14.3 | 0.486 | – | – | –
C#Cc1cccc2cc(O)cc(-c3c(Cl)cc4c(N5CC6CCC(C5)N6)nc(OCC5(CN6CCOCC6)CC5)nc4c3F)c12 (single isomer, unassigned) [Compound 35B] | 5.94 | 111 | – | – | – | 6.2 | 39.5 | 13.4
C#Cc1cccc2cc(O)cc(-c3c(Cl)cc4c(N5CC6CCC(C5)N6)nc(OC[C@@]56CCCN5C[C@H](F)C6)nc4c3F)c12 (single isomer, unassigned) [Compound 72B] | 3.3 | 23 | – | – | – | 1.51 | 48.7 | 4.71
CCc1cccc2cc(O)cc(-c3ccc4c(N5CC6CCC(C5)N6)nc(OCC5(CN6CCOCC6)CC5)nc4c3F)c12 [Compound 47] | 7.21 | 262 | 29.6 | 76.3 | 68 | – | – | –
C#Cc1c(F)ccc2cc(O)cc(-c3ccc4c(N5CC6CCC(C5)N6)nc(OCC5(CN6CCC(C(=O)O)CC6)CC5)nc4c3F)c12 [Compound 77] | 5.11 | 74.1 | 173 | > 10000 | 1180 | – | – | –
Oc1cc(Cl)c(C2CC2)c(-c2c(Cl)cc3c(N4CC5CCC(C4)N5)nc(OCC4(CN5CCOCC5)CC4)nc3c2F)c1 [Compound 133] | 7.82 | 688 | 456 | 714 | 140 | – | – | –
C#Cc1cccc2cc(O)cc(-c3cc4nc(OCC5(CN6CCOCC6)CC5)nc(N5CC6CCC(C5)N6)c4cc3OC)c12 [Compound 120] | 37.4 | 307 | 19.9 | 180 | 28.1 | – | – | –
C#Cc1cccc2cc(O)cc(-c3c(Cl)cc4c(N5CC6CCC(C5)N6)nc(OCC5(CN6CCOCC6)CC5)nc4c3Cl)c12 (single isomer, unassigned) [Compound 107B] | 3.16 | 399 | 57.6 | 395 | 150 | – | – | –
C#Cc1cccc2cc(O)cc(-c3ccc4c(N5CC6CCC(C5)N6)nc(OC[C@@]56CCCN5C[C@H](F)C6)nc4c3Cl)c12 [Compound 81] | 9.49 | 225 | 13.9 | 153 | 16.2 | – | – | –
C#Cc1cccc2cc(O)cc(-c3cc4nc(OCC5(CN6CCOCC6)CC5)nc(N5CC6CCC(C5)N6)c4cc3C#N)c12 [Compound 61] | 23.5 | 284 | 32.8 | 897 | 130 | – | – | –
C#Cc1cccc2cc(O)cc(-c3ccc4c(N5CC6CCC(C5)N6)nc(OCC5(CN6CCC(OC)CC6)CC5)nc4c3F)c12 [Compound 117] | 17.1 | 129 | 10.3 | 85.6 | 12.4 | – | – | –
Oc1cc(-c2c(Cl)cc3c(N4CC5CCC(C4)N5)nc(OCC45CCCN4C[C@H](F)C5)nc3c2F)c2c(Cl)cccc2c1 (stereo partly drawn) [Compound 90] | 5.35 | 84.8 | 12.4 | 100 | 14.6 | – | – | –
C#Cc1cccc2cc(O)cc(-c3c(C)cc4c(N5CC6CCC(C5)N6)nc(OCC5(CN6CCOCC6)CC5)nc4c3F)c12 (single isomer, unassigned) [Compound 40B] | 0.824 | 22.4 | – | – | – | 1.97 | 45.8 | 4.92
C#Cc1cccc2cc(O)cc(-c3ccc4c(N5CC6CCC(C5)N6)nc(OCC5(CN6CC[C@@H](F)C6)CC5)nc4c3F)c12 [Compound 114] | 12.3 | 120 | 9.02 | 18.7 | 4.47 | – | – | –
C#Cc1cccc2cc(O)cc(-c3c(SC(F)(F)F)cc4c(N5CC6CCC(C5)N6)nc(OCC5(CN6CCOCC6)CC5)nc4c3F)c12 (single isomer, unassigned) [Compound 59B] | 1.65 | 6.28 | – | – | – | 10.8 | 5.54 | 6
C#Cc1cccc2cc(O)cc(-c3c(F)cc4c(N5CC6CCC(C5)N6)nc(OCC5(CN6CC[S+]([O-])CC6)CC5)nc4c3F)c12 [Compound 89] | 20.5 | 1940 | > 1000 | 96.6 | 14.9 | – | – | –
